In patent publication US20250206722A1, “SMALL MOLECULE INHIBITORS OF TEA DOMAIN FAMILY MEMBERS” (The Scripps Research Institute, priority 2022, published 2025):

Columns and labels:
[1] = tested on: transcriptional activity of TEADs; experiment: TEAD reporter assay (MCF7 TEAD-LUC reporter cells); type: cell-based; details: Homo sapiens, 24 hours, BrightGlo luminescence
In short: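 MCF7 TEAD-LUC reporter cells were plated at 5,000/well and after 24 h treated with a 20-point 1:2 series from 20 μM final, in triplicate. Luciferase was read by BrightGlo luminescence after 24 h exposure at 37 °C.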

NCI-H226 cells [2] = experiment: NCI-H226 proliferation assay (Wuxi AppTec); type: cell-based; details: Homo sapiens, 168 h, 7 days, CellTiter-Glo, top dose 10, 3-fold dilution, 9 doses
In short: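 NCI-H226 cells were seeded at 500 cells/well overnight, then treated with compounds in a 9-point, 3-fold dilution from a top dose of 10 μM, with 0.2% DMSO. Plates were incubated 7 days at 37° C, 5% CO2. Viability was read by CellTiter-Glo luminescence, normalized to DMSO (max) and medium-only (min) controls.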

NCI-H226 cells [3] = experiment: NCI-H226 proliferation assay (in house); type: cell-based; details: Homo sapiens, 120 h, 5 days, Cell TiterGlo, 20-point 1:2 dilution from 20 μM
In short: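 Cells in RPMI 1640 + 10% FBS, 500 per well, dosed after 24 h with 20-point 1:2 dilutions from 20 μM (final), in triplicate. After 5 days at 37 °C, 5% CO2, viability read by CellTiter-Glo luminescence.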

[4] = Pharmacokinetic studies in mice; type: in vivo, mouse; details: for Vd / clearance / half-life: mouse plasma; for Vd / clearance: intravenous 2 mg/kg in 75% PEG 300+25% D5W; for half-life: intravenous 2 mg/kg, oral 10 mg/kg in 75% PEG 300+25% D5W; for bioavailability: plasma, mouse, oral 10 mg/kg vs intravenous 2 mg/kg in 75% PEG 300+25% D5W
Description: Pharmacokinetic Studies in mice: The plasma pharmacokinetic profiles of representative compounds were evaluated in mouse via intravenous (2 mg/kg in 75% PEG 300+25% D5W solution) and oral (10 mg/kg in 75% PEG 300+25% D5W solution) dosing routes.

IMR32 cells = experiment: IMR32 cytotoxicity assay; type: cell-based; details: Homo sapiens, IMR-32, 72 h, 3 days, Cell TiterGlo
Description: IMR32 cells were obtained from American Type Culture Collection (ATCC, CCL-127) and cultured in DMEM (Corning, 10-013-CV) supplemented with 10% fetal bovine serum (Gibco, 10438-026) and 1% penicillin-streptomycin (Gibco, 15070063). Cells were trypsinized, resuspended in growth medium, and diluted to a concentrated of 20,000 cells/mL. 1,000 cells, 50 μL of cell suspension, per well were then plated in a white 384-well plate (Corning) and incubated at 37° C., 5% CO2. After 24 hours incubation, 100 nL of test compounds in DMSO, 20-point 1:2 dilution starting from 20 μM (final concentration) in triplicate, were transferred to each well using an Agilent Bravo instrument outfitted with a pintool head. Cells were incubated at 37° C., 5% CO2 for 3 days followed by the addition of 30 μL of Cell TiterGlo (Promega; diluted 1:6 in water) to each well and luminescence values recorded using an EnVision plate reader. […]

| SMILES | IC50 [1] [nM] | IC50 (NCI-H226 cells [2]) [µM] | IC50 (NCI-H226 cells [3]) [µM] | Vd [4] [L/kg] | clearance [4] [mL/min/kg] | half-life [4] [min] | bioavailability [4] [%] | IC50 (IMR32 cells) [nM] |
| --- | --- | --- | --- | --- | --- | --- | --- | --- |
| C=CC(=O)N1CCC(c2nccnc2Oc2ccc(C(F)(F)F)nc2)CC1 [Example 79, 1-(4-(3-((6-(trifluoromethyl)pyridin-3-yl)oxy)pyrazin-2-yl)piperidin-1-yl)prop-2-en-1-one] | 2 | 0.028 | 0.017 | 1.73 | 47.3 | 24 | 109 |  |
| C=CC(=O)N1CCN(c2nc(C)cnc2Nc2ccc(C(F)(F)F)cc2)CC1 [Example 112, 1-(4-(6-methyl-3-((4-(trifluoromethyl)phenyl)amino)pyrazin-2-yl)piperazin-1-yl)prop-2-en-1-one] | 1.8 | 0.009 | 0.011 |  |  |  |  | 10000 |

Continued, in another order:

| IC50 [1] [nM] | IC50 (NCI-H226 cells [2]) [µM] | IC50 (NCI-H226 cells [3]) [µM] | Vd [4] [L/kg] | clearance [4] [mL/min/kg] | half-life [4] [min] | bioavailability [4] [%] | SMILES | IC50 (IMR32 cells) [nM] |
| --- | --- | --- | --- | --- | --- | --- | --- | --- |
| 1.8 | 0.0143 | 0.0166 | 7 | 42.2 | 126 | 94.4 | C=CC(=O)N1CCN(c2nccnc2Nc2ccc(C(F)(F)F)cc2)CC1 [Compound 1, 1-(4-(3-((4-(trifluoromethyl)phenyl)amino)pyrazin-2-yl)piperazin-1-yl)prop-2-en-1-one] | > 10000 |
| 5 | 0.015 | 0.016 | 1.8 | 39.5 | 30 | 90 | C=CC(=O)N1CCN(c2nccnc2Nc2ccc(C(F)(F)F)cn2)CC1 [Example 39, 1-(4-(3-((5-(trifluoromethyl)pyridin-2-yl)amino)pyrazin-2-yl)piperazin-1-yl)prop-2-en-1-one] | > 20000 |
| 3 | 0.032 | 0.025 |  |  |  |  | C=CC(=O)N1CCN(c2nccnc2Oc2ccc(C(F)(F)F)cn2)CC1 [Example 73, 1-(4-(3-((5-(trifluoromethyl)pyridin-2-yl)oxy)pyrazin-2-yl)piperazin-1-yl)prop-2-en-1-one] | > 20000 |
